Laboratory results published in patent publication US20240384350A1, “METHODS OF TREATING CANCER WITH KINASE INHIBITORS” (BOARD OF REGENTS, THE UNIVERSITY OF TEXAS SYSTEM, priority 2021, published 2024).

What was measured:
Experiment in all cases: Ba/F3 drug screening, Cell Titer Glo, IC50 Mut/WT
Format in all cases: cell-based
EGFR L833F = target: T1, EGFR L833F (Homo sapiens, UniProt P00533, L833F); details: Classical-Like, 72 hours
T1 construct: expressed in transfected cells; host or cells: Ba/F3 cells, retroviral pBabe-Puro vector

EGFR L858R S784F = target: T2, EGFR L858R S784F (Homo sapiens, UniProt P00533, L858R/S784F); details: Classical-Like, 72 hours
T2 construct: expressed in transfected cells; host or cells: Ba/F3 cells, retroviral pBabe-Puro vector (vector made by GeneScript from EGFR L858R)

EGFR S720P = target: T3, EGFR S720P (Homo sapiens, UniProt P00533, S720P); details: Classical-Like, 72 hours
T3 construct: expressed in transfected cells; host or cells: Ba/F3 cells, retroviral pBabe-Puro vector (vector made by GeneScript from EGFR WT)
Experimental: (§1) Data represent the ratio of the IC50 value for a given TKI for cells with a classical-like EGFR mutation to the IC50 value for cells with wildtype EGFR.
(§2) Ba/F3 cell generation, drug screening, and IC50 approximations. Ba/F3 cells were obtained as a gift from Dr. Gordon Mills (MD Anderson Cancer Center), and maintained in RPMI (Sigma) containing 10% FBS, 1% penicillin/streptomycin, and 10 ng/ml recombinant mIL-3 (R&D Biosystems). To establish stable Ba/F3 cell lines, Ba/F3 cells were transduced with retroviruses containing mutant EGFR plasmids for 12-24 hours.
(§3) After 48-72 hours of transduction, 2 μg/ml puromycin (Invitrogen) was added to Ba/F3 cell lines in complete RPMI. To select for EGFR positive cell lines, cells were stained with PE-EGFR (Biolegend) and sorted by FACS. After sorting, EGFR positive cells were maintained in RPMI containing 10% FBS, 1% penicillin/streptomycin, and 1 ng/ml EGF to support cell viability. […] Shortly, cells were plated in 384-well plates (Greiner Bio-One) at 2000-3000 cells per well in technical triplicate. Seven different concentrations of TKIs or DMSO vehicle were added to reach a final volume of 40 μL per well. After 72 hours, 11 μL of Cell Titer Glo (Promega) was added to each well. Plates were incubated for a minimum of 10 minutes, and bioluminescence was determined using a FLUOstar OPTIMA plate reader (BMG LABTECH). Raw bioluminescence values were normalized to DMSO control treated cells, and values were plotted in GraphPad Prism. […] Drug screens were performed in technical triplicate on each plate and either duplicate or triplicate biological replicates.

EGFR A763insFQEA = target: T4, EGFR A763insFQEA (Homo sapiens, UniProt P00533, INS763FQEA); details: Classical-Like, 72 hours
T4 construct: expressed in transfected cells; host or cells: Ba/F3 cells, retroviral pBabe-Puro vector

EGFR D761N = target: T5, EGFR D761N (Homo sapiens, UniProt P00533, D761N); details: Classical-Like, 72 hours
T5 construct: expressed in transfected cells; host or cells: Ba/F3 cells, retroviral pBabe-Puro vector
Experimental: as §1, §2, §3

EGFR S768dupSVD = target: T6, EGFR S768dupSVD (Homo sapiens, UniProt P00533, DUP768-770); details: Ex20, 72 hours
T6 construct: expressed in transfected cells; host or cells: Ba/F3 cells, retroviral pBabe-Puro vector

EGFR H773insNPH = target: T7, EGFR H773insNPH (Homo sapiens, UniProt P00533, INS773NPH); details: Ex20, 72 hours
T7 construct: expressed in transfected cells; host or cells: Ba/F3 cells, retroviral pBabe-Puro vector
Experimental: (§4) Data represent the ratio of the IC50 value for a given TKI for cells with an ex20ins EGFR mutation to the IC50 value for cells with wildtype EGFR.
as §2
(§5) After 48-72 hours of transduction, 2 μg/ml puromycin (Invitrogen) was added to Ba/F3 cell lines in complete RPMI. To select for EGFR positive cell lines, cells were stained with PE-EGFR (Biolegend) and sorted by FACS. After sorting, EGFR positive cells were maintained in RPMI containing 10% FBS, 1% penicillin/streptomycin, and 1 ng/ml EGF to support cell viability. Drug screening was performed as previously described^41,42. Shortly, cells were plated in 384-well plates (Greiner Bio-One) at 2000-3000 cells per well in technical triplicate. Seven different concentrations of TKIs or DMSO vehicle were added to reach a final volume of 40 μL per well. After 72 hours, 11 μL of Cell Titer Glo (Promega) was added to each well. Plates were incubated for a minimum of 10 minutes, and bioluminescence was determined using a FLUOstar OPTIMA plate reader (BMG LABTECH). Raw bioluminescence values were normalized to DMSO control treated cells, and values were plotted in GraphPad Prism. […] Drug screens were performed in technical triplicate on each plate and either duplicate or triplicate biological replicates. […] Statistical differences between groups were determined by ANOVA as described in the figure legends.

EGFR N771dupN = target: T8, EGFR N771dupN (Homo sapiens, UniProt P00533, DUP771-771); details: Ex20, 72 hours
T8 construct: expressed in transfected cells; host or cells: Ba/F3 cells, retroviral pBabe-Puro vector

EGFR N771dupN G724S = target: T9, EGFR N771dupN G724S (Homo sapiens, UniProt P00533, DUP771-771/G724S); details: Ex20, 72 hours
T9 construct: expressed in transfected cells; host or cells: Ba/F3 cells, retroviral pBabe-Puro vector (vector made by GeneScript from EGFR G724S, c.2313_2314insAAC)
Experimental: as §4, §2, §5

[1] = target: T10, EGFR L747_K754del insATSPE (Homo sapiens, UniProt P00533, DEL747-749/K754E); details: T790M-like-3S, 72 hours
T10 construct: expressed in transfected cells; host or cells: Ba/F3 cells, retroviral pBabe-Puro vector

EGFR T790M = target: T11, EGFR T790M (Homo sapiens, UniProt P00533, T790M); details: T790M-like-3S, 72 hours
T11 construct: expressed in transfected cells; host or cells: Ba/F3

EGFR Ex19del T790M = target: T12, EGFR Ex19del T790M (Homo sapiens, UniProt P00533, DEL746-750/T790M); details: T790M-like-3S, 72 hours
T12 construct: expressed in transfected cells; host or cells: Ba/F3

EGFR G719A T790M = target: T13, EGFR G719A T790M (Homo sapiens, UniProt P00533, G719A/T790M); details: T790M-like-3S, 72 hours
T13 construct: expressed in transfected cells; host or cells: Ba/F3
Experimental: (§6) Data represent the ratio of the IC50 value for a given TKI for cells with a T790M-like-3S EGFR mutation to the IC50 value for cells with wildtype EGFR.
as §2
(§7) After 48-72 hours of transduction, 2 μg/ml puromycin (Invitrogen) was added to Ba/F3 cell lines in complete RPMI. To select for EGFR positive cell lines, cells were stained with PE-EGFR (Biolegend) and sorted by FACS. After sorting, EGFR positive cells were maintained in RPMI containing 10% FBS, 1% penicillin/streptomycin, and 1 ng/ml EGF to support cell viability. Drug screening was performed as previously described^41,42. Shortly, cells were plated in 384-well plates (Greiner Bio-One) at 2000-3000 cells per well in technical triplicate. Seven different concentrations of TKIs or DMSO vehicle were added to reach a final volume of 40 μL per well. After 72 hours, 11 μL of Cell Titer Glo (Promega) was added to each well. Plates were incubated for a minimum of 10 minutes, and bioluminescence was determined using a FLUOstar OPTIMA plate reader (BMG LABTECH). Raw bioluminescence values were normalized to DMSO control treated cells, and values were plotted in GraphPad Prism. […] Drug screens were performed in technical triplicate on each plate and either duplicate or triplicate biological replicates.

EGFR G719S T790M = target: T14, EGFR G719S T790M (Homo sapiens, UniProt P00533, G719S/T790M); details: T790M-like-3S, 72 hours
T14 construct: expressed in transfected cells; host or cells: Ba/F3

EGFR Ex19del/T790M/G724S = target: T15, EGFR Ex19del/T790M/G724S (Homo sapiens, UniProt P00533, DEL746-750/G724S/T790M); details: T790M-like-3S, 72 hours
T15 construct: expressed in transfected cells; host or cells: Ba/F3

EGFR L858R T790M L792H = target: T16, EGFR L858R T790M L792H (Homo sapiens, UniProt P00533, L792H/L858R/T790M); details: T790M-like-3S, 72 hours
T16 construct: expressed in transfected cells; host or cells: Ba/F3
Experimental: as §6, §2, §7

EGFR Ex19del T790M L718V = target: T17, EGFR Ex19del T790M L718V (Homo sapiens, UniProt P00533, DEL746-750/L718V/T790M); details: T790M-like-3S, 72 hours
T17 construct: expressed in transfected cells; host or cells: Ba/F3

EGFR L858R/T790M/L718Q = target: T18, EGFR L858R/T790M/L718Q (Homo sapiens, UniProt P00533, L718Q/L858R/T790M); details: T790M-like-3R, 72 hours
T18 construct: expressed in transfected cells; host or cells: Ba/F3

EGFR Ex19del/T790M/L792H = target: T19, EGFR Ex19del/T790M/L792H (Homo sapiens, UniProt P00533, DEL746-750/L792H/T790M); details: T790M-like-3R, 72 hours
T19 construct: expressed in transfected cells; host or cells: Ba/F3

EGFR Ex19del T790M C797S = target: T20, EGFR Ex19del T790M C797S (Homo sapiens, UniProt P00533, C797S/DEL746-750/T790M); details: T790M-like-3R, 72 hours
T20 construct: expressed in transfected cells; host or cells: Ba/F3

EGFR E709K G719S = target: T21, EGFR E709K G719S (Homo sapiens, UniProt P00533, E709K/G719S); details: Ba/F3 cells, EGFR E709K G719S (PACC), Mut/WT
T21 construct: expressed in transfected cells; host or cells: Ba/F3

EGFR E709A G719S = target: T22, EGFR E709A G719S (Homo sapiens, UniProt P00533, E709A/G719S); details: Ba/F3 cells, EGFR E709A G719S (PACC), Mut/WT
T22 construct: expressed in transfected cells; host or cells: Ba/F3

EGFR E709A = target: T23, EGFR E709A (Homo sapiens, UniProt P00533, E709A); details: Ba/F3 cells, EGFR E709A (PACC), Mut/WT
T23 construct: expressed in transfected cells; host or cells: Ba/F3

EGFR V774M = target: T24, EGFR V774M (Homo sapiens, UniProt P00533, V774M); details: Ba/F3 cells, EGFR V774M (PACC), Mut/WT
T24 construct: host or cells: Ba/F3
Experimental: (§8) Data represent the ratio of the IC50 value for a given TKI for cells with a PACC EGFR mutation to the IC50 value for cells with wildtype EGFR.
as §2, §7

EGFR L858R L718Q = target: T25, EGFR L858R L718Q (Homo sapiens, UniProt P00533, L718Q/L858R); details: Ba/F3 cells, EGFR L858R L718Q (PACC), Mut/WT
T25 construct: host or cells: Ba/F3
Experimental: as §8, §2, §7

EGFR Ex19del G796S = target: T26, EGFR Ex19del G796S (Homo sapiens, UniProt P00533, DEL746-750/G796S); details: Ba/F3 cells, EGFR Ex19del G796S (PACC), Mut/WT
T26 construct: expressed in transfected cells; host or cells: Ba/F3
Experimental: as §8, §2, §7

EGFR Ex19del L718Q = target: T27, EGFR Ex19del L718Q (Homo sapiens, UniProt P00533, DEL746-750/L718Q); details: Ba/F3 cells, EGFR Ex19del L718Q (PACC), Mut/WT
T27 construct: expressed in transfected cells; host or cells: Ba/F3
Experimental: as §8, §2, §7

SMILES | ratio of IC50 for cells with mutant EGFR to IC50 for cells with wildtype EGFR (Mut/WT) (EGFR L833F) | ratio of IC50 for cells with mutant EGFR to IC50 for cells with wildtype EGFR (Mut/WT) (EGFR L858R S784F) | ratio of IC50 for cells with mutant EGFR to IC50 for cells with wildtype EGFR (Mut/WT) (EGFR S720P) | ratio of IC50 for cells with mutant EGFR to IC50 for cells with wildtype EGFR (Mut/WT) (EGFR A763insFQEA) | ratio of IC50 for cells with mutant EGFR to IC50 for cells with wildtype EGFR (Mut/WT) (EGFR D761N) | ratio of IC50 for cells with mutant EGFR to IC50 for cells with wildtype EGFR (Mut/WT) (EGFR S768dupSVD) | ratio of IC50 for cells with mutant EGFR to IC50 for cells with wildtype EGFR (Mut/WT) (EGFR H773insNPH) | ratio of IC50 for cells with mutant EGFR to IC50 for cells with wildtype EGFR (Mut/WT) (EGFR N771dupN) | ratio of IC50 for cells with mutant EGFR to IC50 for cells with wildtype EGFR (Mut/WT) (EGFR N771dupN G724S) | ratio of IC50 for cells with mutant EGFR to IC50 for cells with wildtype EGFR (Mut/WT) [1] | ratio of IC50 for cells with mutant EGFR to IC50 for cells with wildtype EGFR (Mut/WT) (EGFR T790M) | ratio of IC50 for cells with mutant EGFR to IC50 for cells with wildtype EGFR (Mut/WT) (EGFR Ex19del T790M) | ratio of IC50 for cells with mutant EGFR to IC50 for cells with wildtype EGFR (Mut/WT) (EGFR G719A T790M) | ratio of IC50 for cells with mutant EGFR to IC50 for cells with wildtype EGFR (Mut/WT) (EGFR G719S T790M) | ratio of IC50 for cells with mutant EGFR to IC50 for cells with wildtype EGFR (Mut/WT) (EGFR Ex19del/T790M/G724S) | ratio of IC50 for cells with mutant EGFR to IC50 for cells with wildtype EGFR (Mut/WT) (EGFR L858R T790M L792H) | ratio of IC50 for cells with mutant EGFR to IC50 for cells with wildtype EGFR (Mut/WT) (EGFR Ex19del T790M L718V) | ratio of IC50 for cells with mutant EGFR to IC50 for cells with wildtype EGFR (Mut/WT) (EGFR L858R/T790M/L718Q) | ratio of IC50 for cells with mutant EGFR to IC50 for cells with wildtype EGFR (Mut/WT) (EGFR Ex19del/T790M/L792H) | ratio of IC50 for cells with mutant EGFR to IC50 for cells with wildtype EGFR (Mut/WT) (EGFR Ex19del T790M C797S) | further results
C=CC(=O)Nc1cccc(Oc2nc(Nc3ccc(N4CCN(C)CC4)cc3)nc3ccsc23)c1 [Olmutinib] | 0.1289 | 0.04569 | 0.003331 | 0.02753 | 0.1654 | 0.5533 | 0.4274 | 0.4208 | 0.4165 | 0.0001357 | 0.04611 | 0.0004059 | 0.0114 | 0.02453 | 0.005075 | 0.004757 | 0.02165 | 0.6196 | 2.218 | 1.926 | ratio of the IC50 value for cells with a PACC EGFR mutation to the IC50 value for cells with wildtype EGFR (EGFR E709K G719S): 0.3569; ratio of the IC50 value for cells with a PACC EGFR mutation to the IC50 value for cells with wildtype EGFR (EGFR E709A G719S): 0.1443; ratio of the IC50 value for cells with a PACC EGFR mutation to the IC50 value for cells with wildtype EGFR (EGFR E709A): 0.01516; ratio of the IC50 value for cells with a PACC EGFR mutation to the IC50 value for cells with wildtype EGFR (EGFR V774M): 0.06988; ratio of the IC50 value for cells with a PACC EGFR mutation to the IC50 value for cells with wildtype EGFR (EGFR L858R L718Q): 2.324; ratio of the IC50 value for cells with a PACC EGFR mutation to the IC50 value for cells with wildtype EGFR (EGFR Ex19del G796S): 0.8234; ratio of the IC50 value for cells with a PACC EGFR mutation to the IC50 value for cells with wildtype EGFR (EGFR Ex19del L718Q): 0.03389
C=CC(=O)N[C@H]1C=C(C)c2c(-c3cnc4ccccc4c3)c3c(N)ncnc3n2C1 [TAS 6417] | 0.06886 | 0.001423 | 0.01035 | 0.004982 | 0.2474 | 0.05773 | 0.1843 | 0.05134 | 0.05113 | 0.0004661 | 0.6671 | 0.001513 | 0.01296 | 0.032 | 0.1997 | 9.536E−05 | 0.002884 | 3.055 | 0.0002637 | 3.055 | ratio of the IC50 value for cells with a PACC EGFR mutation to the IC50 value for cells with wildtype EGFR (EGFR E709K G719S): 0.007578; ratio of the IC50 value for cells with a PACC EGFR mutation to the IC50 value for cells with wildtype EGFR (EGFR E709A G719S): 0.03472; ratio of the IC50 value for cells with a PACC EGFR mutation to the IC50 value for cells with wildtype EGFR (EGFR E709A): 0.3054; ratio of the IC50 value for cells with a PACC EGFR mutation to the IC50 value for cells with wildtype EGFR (EGFR V774M): 0.3282; ratio of the IC50 value for cells with a PACC EGFR mutation to the IC50 value for cells with wildtype EGFR (EGFR L858R L718Q): 0.0157; ratio of the IC50 value for cells with a PACC EGFR mutation to the IC50 value for cells with wildtype EGFR (EGFR Ex19del G796S): 0.06554; ratio of the IC50 value for cells with a PACC EGFR mutation to the IC50 value for cells with wildtype EGFR (EGFR Ex19del L718Q): 2.333
